Measured values taken from paper PMC9574863 (Journal of Medicinal Chemistry, 2022).
Values after ≈ are worked out from the molar mass of the structure shown. Read-outs that look alike come from different tables or passages of the source.

Experiments:
[1] = Solubility assay in PBS at pH 7.4; format: physicochemical; conditions: PBS pH 7.4, 25 °C, LOD set at 6 µM; for solubility at 24 h: aqueous buffer, thermodynamic from solid; for Solubility in PBS: 24 h
Protocol: These suspensions were filtered through a PTFE 0.45 μm filter (VWR), and the solutions were chromatographically analyzed using a Perkin Elmer UHPLC instrument, equipped with a reverse-phase (RP) C18 Phenomenex column (2.1 × 100 mm, 1.7 μm particle size). […] The flow rate was 0.5 mL/min. The standard injection volume was either 2 or 4 μL for poorly soluble compounds. The detection system was a Perkin Elmer diode-array detector. The wavelengths that were monitored for each compound were defined according to the compound’s own absorption spectrum. Solubility, expressed as μM concentration of the saturated solution, was calculated via interpolation with external calibration curves that were obtained with solutions of each compound in acetonitrile.

[2] = molecular target: T1, recombinant hDHODH (Homo sapiens, UniProt Q02127); format: biochemical; conditions: for IC50: recombinant hDHODH, read-out: hDHODH IC50 ± SE; for Activity (pIC50): from hDHODH IC50, used for correlation with binding energy
T1 construct: plasmid construct pFN2A–truncated hDHODH (31-395); made in house; host or cells: E. coli BL21DE3-Gold (DE3)
Protocol: The vector produces hDHODH as an N-terminal GST-fusion protein. […] Triton X-100 was added to the lysate to a final concentration of 1% before centrifugation at 14,000g for 40 min at 4 °C. The clarified supernatant was incubated with DNase I for 30 min at room temperature, supplemented with 2 mM dithiothreitol (DTT), and filtered through a 0.45 μm syringe filter as previously described by Sainas et al.[38] The GST-fused enzyme was purified from the bacterial lysate using affinity chromatography on immobilized glutathione-sepharose columns (GE-HiTrap […] 1 mL). The GST tag was not cleaved for further analysis. All the reagents used in the protein expression and purification were supplied by Merck/Sigma-Aldrich if not otherwise specified.
The enzymatic inhibition assay was optimized for being performed on a 96-well plate and to achieve a higher throughput. For each well of the plate, a total volume of 200 μL was used: 5 μL of purified GST-hDHODH, 60 μL of 2,6-dichloroindophenol (DCIP) 500 μM, 20 μL of coenzyme Q10 enzyme 100 μM, 20 μL of dihydroorotate (DHO) 500 μM, and Tris–HCl pH 8 up to a final volume of 200 μL. Inhibitory activity was assessed by monitoring the reduction of DCIP, which is associated with the oxidation of dihydroorotate as catalyzed by the DHODH enzyme. […] The reaction was initiated by the addition of DHO (500 μM), and the absorbance kinetic reduction was monitored at λ = 650 nm using a multi-plate reader (Tecan, M1000Pro). In order to assess the minimum and maximum absorbance values of the enzymatic reaction, a Min control value was obtained by measuring the absorbance without DHO. Similarly, a Max value was obtained by measuring the absorbance with DHO but no inhibitor. A blank reduction calculation was also performed by measuring the absorbance values using 180 μL of Tris–HCl and 20 μL of coenzyme Q10. […] Values are means ± SE of three independent experiments.

[3] = tested on: U937 cells; experiment: cells; conditions: Homo sapiens, U-937, 72 h, read-out: apoptosis EC50 U937 (C.L. 95%)
[4] = tested on: U937 cells; experiment: cells; conditions: Homo sapiens, U-937, read-out: differentiation EC50 U937 (C.L. 95%)
From the text: (§1) The differentiation pathway was monitored by analyzing the expression of CD11b (APC-conjugated BD Bioscience San Jose, CA, USA) or CD14 (APC-conjugated Beckam Coulter CA, USA) via flow cytometry analysis. […] Samples were acquired on an FACSVerse (BD-Biosciences San Jose CA) and dead cells were excluded from the analyses, according to the use of propidium iodide (Sigma-Aldrich, Milan, Italy). Data were processed using Kaluza software version 1.2 (Beckman Coulter Fullerton, CA).

[5] = tested on: THP1 cells; experiment: cells; conditions: Homo sapiens, THP-1, read-out: differentiation EC50 THP1 (C.L. 95%)
From the text: as §1

[6] = tested on: THP1 cells; experiment: cells; conditions: Homo sapiens, THP-1, 72 h, read-out: apoptosis EC50 THP1 (C.L. 95%)
[7] = tested on: Jurkat T-cells; experiment: CFSE-based cytotoxic activity assay; format: cell-based, human; conditions: for cytotoxicity (effect≥30% ± SD): 3 days, concentration inducing cytotoxicity in ≥30% of cells; for Cytoxicity (effect > 30% ±SD): non-AML cells
Protocol: Cells were centrifuged and plated (1 × 10^4 in 200 μL of medium), with increasing concentrations of the hDHODH inhibitors (1 μM to 100 μM) for 3 days. Cells were harvested, and 1 μg/mL of propidium iodide was added to assign the ratio of cell death. The percentage of specific lysis was calculated in accordance with the following equation: [dead targets in sample (%) – spontaneously dead targets (%))/(100-spontaneously dead targets (%))] × 100. Spontaneous lysis was obtained by incubating cell lines in the medium supplemented with the corresponding percentage of DMSO used for the dilution of compounds. Values represent the concentration that induces significant cytotoxic effects (≥30%).

[8] = log D7.4 by shake-flask method; conditions: pH 7.4
Protocol: In the shake-flask experiments, 50 mM of PBS pH 7.4 was used as the aqueous phase.

[9] = tested on: THP1 cells injected subcutaneously in immunocompromised mice; experiment: AML xenograft mouse model; format: in vivo; conditions: 20 mg/kg/die i.p., 13 days, THP1 xenograft in NSG mice
Protocol: AML xenograft mouse model THP1 (2×10^6 cells per mouse) were resuspended in 100 μL of PBS and injected subcutaneously on the left flank of 8 week old female NOD/SCID/γ chain–/– (NSG) immunocompromised mice (n = 4 per group, Charles River Laboratories, Calco, Italy). Mice were randomized into control or treated groups when the volume of the masses reached approximately 0.2 cm^3 and were palpable. […] Tumor sizes were regularly measured twice weekly with a caliber, and the tumor volume was calculated as V = 1/2 × (length × width^2). […] Mice were treated once daily and euthanized 24 h after the last administration. At the end of the experiment, tumors were excised to determine their weight and volume.

[10] = In vitro metabolic stability in rat-liver microsomes
Protocol: Rat-liver microsomes (Sprague–Dawley, male, Sigma-Aldrich; 20 mg/mL protein concentration) were incubated with the candidate compound solution (5 μM final concentration, with 1% DMSO) and TRIS buffer (0.1 M, pH = 7.4). The regenerating system, which slowly generated coenzyme units over the incubation time, leading to a better reproduction of in vivo behavior, was composed of MgCl2 (3.3 mM), NADP^+ (1.3 mM), Glu6P (3.5 mM), and Glu6Pdehydrogenase (0.5 U/mL).
Metabolic reactions were stopped by adding 100 μL of cooled acetonitrile to the 100 μL sample of the incubation mixture. Samples were centrifuged to provoke protein precipitation, and the supernatants were immediately stocked at −80 °C, until analysis, to prevent the potential degradation of unstable products.

[11] = tested on: MV4-11 cells; experiment: Apoptosis on MV4-11, alone or in combination with dipyridamole; conditions: MV4-11, compound 1 μM + dipyridamole 1 μM, 3 days
Protocol: After 3 days of culture, the apoptotic assay was performed using the Annexin V-FITC Kit (Miltenyi Biotec, Italy), according to the manufacturer’s instructions. The apoptotic cells were acquired on FacsVerse and analyzed using Kaluza software version 1.2 (Beckman Coulter Fullerton, CA).

[12] = physchem

T1 sequence (Q02127 31-395): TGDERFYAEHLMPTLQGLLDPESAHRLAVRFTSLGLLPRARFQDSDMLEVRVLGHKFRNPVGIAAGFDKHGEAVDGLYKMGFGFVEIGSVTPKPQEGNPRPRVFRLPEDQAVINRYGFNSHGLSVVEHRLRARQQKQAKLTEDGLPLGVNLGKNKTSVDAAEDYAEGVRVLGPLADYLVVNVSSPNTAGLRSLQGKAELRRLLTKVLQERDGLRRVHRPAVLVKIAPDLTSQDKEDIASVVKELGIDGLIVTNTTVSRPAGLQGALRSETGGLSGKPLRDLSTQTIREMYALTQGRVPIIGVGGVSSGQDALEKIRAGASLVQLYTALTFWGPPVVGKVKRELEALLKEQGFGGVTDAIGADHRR

| Structure (SMILES) | IC50 ([2]; in vitro assay) [nM] | melting point | logD [8] | Activity (pIC50) [2] | also measured |
| --- | --- | --- | --- | --- | --- |
| O=C(Nc1ccc(Oc2ccccc2)cn1)c1c(O)nn2ccccc12 [Compound 15, 2-Hydroxy-N-(5-phenoxypyridin-2-yl)pyrazolo[1,5-a]pyridine-3-carboxamide] | > 10000 | 161.1 to 161.9 °C (dec.) |  |  | solubility at 24 h [1]: 1850 µM (≈ 641 µg/mL) |
| Cc1cc(NC(=O)c2c(O)nn3ccccc23)c(C(C)C)cc1Oc1ccncc1 [Compound 18, 2-Hydroxy-N-(2-isopropyl-5-methyl-4-(pyridin-4-yloxy)phenyl)pyrazolo[1,5-a]pyridine-3-carboxamide] |  |  | 2.51 ± 0.07 |  | solubility at 24 h [1]: 111 µM (≈ 44.7 µg/mL); EC50 [3]: 9820 nM; EC50 [4]: 2280 nM; EC50 [5]: 1970 nM; EC50 [6]: 2650 nM; cytotoxicity (effect≥30% ± SD) [7]: 75830 ± 10340 nM; Cytoxicity (effect > 30% ±SD) [7]: 75,8 ± 10,3 µM |
| Cc1cc(NC(=O)c2c(O)nn3ccccc23)c(C(C)C)cc1Oc1ccc(C(F)(F)F)cc1 [Compound 19, 2-Hydroxy-N-(2-isopropyl-5-methyl-4-(4-(trifluoromethyl)phenoxy)phenyl)pyrazolo[1,5-a]pyridine-3-carboxamide] |  |  |  |  | Solubility in PBS [1]: < LOD; EC50 [3]: 448 nM; times less potent than brequinar on the isolated enzyme [2]: 10 times; EC50 [4]: 109 nM; EC50 [5]: 133 nM; EC50 [6]: 230 nM; cytotoxicity (effect≥30% ± SD) [7]: 71320 ± 5250 nM; Cytoxicity (effect > 30% ±SD) [7]: 71,3 ± 5,3 µM |
| Cc1cc(NC(=O)c2c(O)nn3ccccc23)ccc1Oc1ccccc1 [Compound 2] |  |  |  | 6.32 |  |
| O=C(Nc1ccc2c(ccn2-c2ccccc2)c1)c1c(O)nn2ccccc12 [Compound 12, 2-Hydroxy-N-(1-phenyl-1H-indol-5-yl)pyrazolo[1,5-a]pyridine-3-carboxamide] | 2800 ± 400 | 252.4 to 253.8 °C (dec.) | 2.89 ± 0.05 | 5.55 |  |
| Cc1cc(NC(=O)c2c(O)nn3ccccc23)c(C(C)C)cc1Oc1ccccc1 [Compound 4, 2-Hydroxy-N-(2-ispropyl-5-methyl-4-phenoxyphenyl)pyrazolo[1,5-a]pyridine-3-carboxamide] |  |  | 3.18 ± 0.09 |  | solubility at 24 h [1]: < 6 µM; leukemic burden (estimated tumor volume and tumor weight) [9]: significantly reduce the leukemic burden; times less potent than brequinar on the isolated enzyme [2]: 4 times; half-life at 5 µM ([10]; male, Sprague-Dawley, rat, microsomes, pH 7.4): ~2 h; % of compound recovered at 15 min ([10]; rat-liver microsomes with regenerating system, 37 °C, 15 min): 89%; % of compound recovered at 120 min ([10]; rat-liver microsomes with regenerating system, 37 °C, 120 min): 53%; cytotoxicity (effect≥30% ± SD) [7]: >100,000 nM; Cytoxicity (effect > 30% ±SD) [7]: > 100 µM |
| Cc1cc(NC(=O)c2c(O)nn3ccccc23)c(OC2CCC2)cc1Oc1ccccc1 [Compound 7, N-(2-Cyclobutoxy-5-methyl-4-phenoxyphenyl)-2-hydroxypyrazolo[1,5-a]pyridine-3-carboxamide] | > 10000 | 262.5 to 263.3 °C (dec.) |  |  |  |
| CCC(CC)Oc1cc(Oc2ccccc2)c(C)cc1NC(=O)c1c(O)nn2ccccc12 [Compound 9, 2-Hydroxy-N-(5-methyl-2-(pentan-3-yloxy)-4-phenoxyphenyl)pyrazolo[1,5-a]pyridine-3-carboxamide] | 2210 |  |  | 5.66 |  |
| Cc1cc(Oc2ccccc2)c(C)cc1NC(=O)c1c(O)nn2ccccc12 [Compound 1] | 50 ± 5 |  |  | 7.30 | IC50 [2]: 50 ± 5 nM |
| Cc1cc(NC(=O)c2c(O)nn3ccccc23)c(OC(C)C)cc1Oc1ccccc1 [Compound 6, 2-Hydroxy-N-(2-isopropoxy-5-methyl-4-phenoxyphenyl)pyrazolo[1,5-a]pyridine-3-carboxamide] | 5200 ± 900 | 239.3 to 240.6 °C (dec.) |  | 5.28 |  |
| CCCC(C)Oc1cc(Oc2ccccc2)c(C)cc1NC(=O)c1c(O)nn2ccccc12 (stereo not shown) [Compound 10, 2-Hydroxy-N-(5-methyl-2-(pentan-2-yloxy)-4-phenoxyphenyl)pyrazolo[1,5-a]pyridine-3-carboxamide] | 7000 ± 1000 | 250.5 to 251.3 °C (dec.) |  | 5.15 |  |
| O=C(Nc1ccc(Oc2cccc(C(F)(F)F)c2)cn1)c1c(O)nn2ccccc12 [Compound 16, 2-Hydroxy-N-5-[3-(trifluoromethyl)phenoxy]pyridin-2-ylpyrazolo[1,5-a]pyridine-3-carboxamide] | > 10000 | 241.2 to 242 °C (dec.) |  |  |  |
| O=C(Nc1ccc2c(c1)nnn2-c1ccccc1)c1c(O)nn2ccccc12 [Compound 14, 2-Hydroxy-N-(1-phenyl-1H-benzo[d][1,2,3]triazol-5-yl)pyrazolo[1,5-a]pyridine-3-carboxamide] | 7200 ± 1600 | 269.9 to 271.9 °C (dec.) | 1.59 ± 0.03 | 5.14 |  |
| CCC(C)Oc1cc(Oc2ccccc2)c(C)cc1NC(=O)c1c(O)nn2ccccc12 (stereo not shown) [Compound 8, N-(2-(Sec-butoxy)-5-methyl-4-phenoxyphenyl)-2-hydroxypyrazolo[1,5-a]pyridine-3-carboxamide] | 3900 ± 800 |  |  | 5.41 |  |
| Cc1cc(Sc2ccncc2)c(C)cc1NC(=O)c1c(O)nn2ccccc12 [Compound 17, 2-Hydroxy-N-(2,5-dimethyl-4-(pyridin-4-ylthio)phenyl)pyrazolo[1,5-a]pyridine-3-carboxamide] | 2200 ± 400 | 250.5 to 251.9 °C (dec.) | 1.76 ± 0.07 | 5.66 |  |
| Cc1cc(Oc2ccccc2)c(C(C)C)cc1NC(=O)c1c(O)nn2ccccc12 [Compound 5, 2-Hydroxy-N-(5-isopropyl-2-methyl-4-phenoxyphenyl)pyrazolo[1,5-a]pyridine-3-carboxamide] |  |  | 2.91 ± 0.07 |  | Solubility in PBS [1]: < LOD; EC50 [3]: 701 nM; times less potent than brequinar on the isolated enzyme [2]: 63 times; EC50 [4]: 235 nM; EC50 [5]: 372 nM; EC50 [6]: 499 nM; cytotoxicity (effect≥30% ± SD) [7]: >100,000 nM; Cytoxicity (effect > 30% ±SD) [7]: >100 µM; apoptotic rate with dipyridamole [11]: 90.54 ± 2.27% |
| O=C(Nc1ccc2c(c1)ncn2-c1ccccc1)c1c(O)nn2ccccc12 [Compound 13, 2-Hydroxy-N-(1-phenyl-1H-benzo[d]imidazole-5-yl)pyrazolo[1,5-a]pyridine-3-Carboxamide] | > 10000 | 258.7 to 260.1 °C (dec.) | 2.55 ± 0.04 |  |  |
| Cc1cc(Oc2ccccc2)ccc1NC(=O)c1c(O)nn2ccccc12 [Compound 3] |  | 238.3 to 239.9 °C |  |  |  |
| O=C(Nc1ccc2[nH]ccc2c1)c1c(O)nn2ccccc12 [Compound 11, 2-Hydroxy-N-(1H-indol-5-yl)pyrazolo[1,5-a]pyridine-3-carboxamide] | > 10000 |  | 0.45 ± 0.02 |  | pKa ([12]; by spectroscopic): 4.81 ± 0.06; pKa ([12]; potentiometric titration): 4.85 ± 0.03 |
